This note sets out measurements from patent US20220177508A1, “C10-Cyclic Substituted 13-Membered Macrolides and Uses Thereof” (Zikani Therapeutics, Inc., priority 2018, published 2022).

As a reminder, the MIC is the smallest concentration in the dilution series that meets the test's criterion for growth inhibition.

Converted amounts (≈) assume the structure as drawn.

Common to all, as to type: cell-based
One assay concerns S. aureus MP-12. As to the kind of experiment: Broth dilution MIC determination (CLSI), S. aureus MP-12. The conditions noted are these: Staphylococcus aureus, MP12; strain MP-12, broth dilution.
The subject of a further assay is A. baumannii MP-15. The assay is described as follows: Broth dilution MIC determination (CLSI), A. baumannii MP-15. The settings on record: Acinetobacter baumannii, MP15; strain MP-15, broth dilution; read-out: MIC A. baumanii MP-15. Background: Dilution methods test growth across graded concentrations, often in twofold steps.
The subject of another assay is E. coli MP-4. As to the kind of experiment: Broth dilution MIC determination (CLSI), E. coli MP-4. The settings on record: Escherichia coli, MP4; strain MP-4, broth dilution; read-out: MIC E. coli MP-4.
In the next assay the test system is K. pneumoniae MP-546. As to the kind of experiment: Broth dilution MIC determination (CLSI), K. pneumoniae MP-546. The conditions noted are these: Klebsiella pneumoniae, MP546; strain MP-546, broth dilution.
In a further assay the test system is P. aeruginosa MP-3. As to the kind of experiment: Broth dilution MIC determination (CLSI), P. aeruginosa MP-3. The settings on record: Pseudomonas aeruginosa, MP3; strain MP-3, broth dilution.

`CO[C@]1(C)C[C@@H](C)CN(C)[C@H](C2CN(C(C)C)C2)COC(=O)C(C)(C)C(=O)[C@H](C)[C@H]1O[C@@H]1O[C@H](C)C[C@H](N(C)C)[C@H]1O` [Compound 35, (3R,6R,8R,9R,10R)-9-(((2S,3R,4S,6R)-4-(dimethylamino)-3-hydroxy-6-methyltetrahydro-2H-pyran-2-yl)oxy)-3-(1-isopropylazetidin-3-yl)-8-methoxy-4,6,8,10,12,12-hexamethyl-1-oxa-4-azacyclotridecane-11,13-dione]: the MIC against S. aureus MP-12 was more than 32 µg/mL; in the assay on A. baumannii MP-15, more than 32 µg/mL; in the assay with E. coli MP-4 it was less than 4 µg/mL; against K. pneumoniae MP-546, 4 to 32 µg/mL (≈ 6.69 to 53.5 µM); in the assay with P. aeruginosa MP-3, more than 32 µg/mL.

For `CO[C@]1(C)C[C@@H](C)CN(C)[C@@H]([C@H]2CCN(C(=O)CN(C)C)C2)COC(=O)C(C)(C)C(=O)[C@H](C)[C@H]1O[C@@H]1O[C@H](C)C[C@H](N(C)C)[C@H]1O` [Compound 67, (3S,6R,8R,9R,10R)-9-(((2S,3R,4S,6R)-4-(dimethylamino)-3-hydroxy-6-methyltetrahydro-2H-pyran-2-yl)oxy)-3-((S)-1-(dimethylglycyl)pyrrolidin-3-yl)-8-methoxy-4,6,8,10,12,12-hexamethyl-1-oxa-4-azacyclotridecane-11,13-dione], the minimal inhibitory concentration (MIC) in the assay with S. aureus MP-12 is more than 32 µg/mL; with A. baumannii MP-15, more than 32 µg/mL; in the assay on E. coli MP-4 it was less than 4 µg/mL; against K. pneumoniae MP-546, 4 to 32 µg/mL (≈ 6.11 to 48.9 µM); against P. aeruginosa MP-3 it was more than 32 µg/mL.

As for `CO[C@]1(C)C[C@@H](C)CN(C)[C@@H](C2CCN(C)CC2)COC(=O)C(C)(C)C(=O)[C@H](C)[C@H]1O[C@@H]1O[C@H](C)C[C@H](N(C)C)[C@H]1O` [Compound 64, (3S,6R,8R,9R,10R)-9-(((2S,3R,4S,6R)-4-(dimethylamino)-3-hydroxy-6-methyltetrahydro-2H-pyran-2-yl)oxy)-8-methoxy-4,6,8,10,12,12-hexamethyl-3-(1-methylpiperidin-4-yl)-1-oxa-4-azacyclotridecane-11,13-dione], the minimal inhibitory concentration (MIC) against S. aureus MP-12 is 4 to 32 µg/mL (≈ 6.69 to 53.5 µM); in the assay on A. baumannii MP-15, more than 32 µg/mL; in the assay with E. coli MP-4, less than 4 µg/mL; against K. pneumoniae MP-546 it was less than 4 µg/mL; in the assay with P. aeruginosa MP-3 it was more than 32 µg/mL.

For `CO[C@]1(C)C[C@@H](C)CN(C)[C@H]([C@H]2CCN(C(=O)CN(C)C)C2)COC(=O)C(C)(C)C(=O)[C@H](C)[C@H]1O[C@@H]1O[C@H](C)C[C@H](N(C)C)[C@H]1O` [Compound 100, (3R,6R,8R,9R,10R)-9-(((2S,3R,4S,6R)-4-(Dimethylamino)-3-hydroxy-6-methyltetrahydro-2H-pyran-2-yl)oxy)-3-((S)-1-(dimethylglycyl)pyrrolidin-3-yl)-8-methoxy-4,6,8,10,12,12-hexamethyl-1-oxa-4-azacyclotridecane-11,13-dione], the MIC against S. aureus MP-12 was more than 32 µg/mL; in the assay on A. baumannii MP-15, more than 32 µg/mL; in the assay on E. coli MP-4, 4 to 32 µg/mL (≈ 6.11 to 48.9 µM); against K. pneumoniae MP-546, 4 to 32 µg/mL (≈ 6.11 to 48.9 µM); against P. aeruginosa MP-3, more than 32 µg/mL.

Turning to `CO[C@]1(C)C[C@@H](C)CN(C)[C@@H](C2CCNCC2)COC(=O)C(C)(C)C(=O)[C@H](C)[C@H]1O[C@@H]1O[C@H](C)C[C@H](N(C)C)[C@H]1O` [Compound 98, (3S,6R,8R,9R,10R)-9-(((2S,3R,4S,6R)-4-(dimethylamino)-3-hydroxy-6-methyltetrahydro-2H-pyran-2-yl)oxy)-8-methoxy-4,6,8,10,12,12-hexamethyl-3-(piperidin-4-yl)-1-oxa-4-azacyclotridecane-11,13-dione], the minimal inhibitory concentration (MIC) in the assay on S. aureus MP-12 is 4 to 32 µg/mL (≈ 6.85 to 54.8 µM); with A. baumannii MP-15 it was more than 32 µg/mL; with E. coli MP-4, less than 4 µg/mL; with K. pneumoniae MP-546, 4 to 32 µg/mL (≈ 6.85 to 54.8 µM); against P. aeruginosa MP-3, more than 32 µg/mL.

As to `CO[C@]1(C)C[C@@H](C)CN(CC(C)C)[C@H](C2CN(CC(C)C)C2)COC(=O)C(C)(C)C(=O)[C@H](C)[C@H]1O[C@@H]1O[C@H](C)C[C@H](N(C)C)[C@H]1O` [Compound 21, (3R,6R,8R,9R,10R)-9-(((2S,3R,4S,6R)-4-(dimethylamino)-3-hydroxy-6-methyltetrahydro-2H-pyran-2-yl)oxy)-4-isobutyl-3-(1-isobutylazetidin-3-yl)-8-methoxy-6,8,10,12,12-pentamethyl-1-oxa-4-azacyclotridecane-11,13-dione], the minimum inhibitory concentration (MIC) against S. aureus MP-12, in the assay on A. baumannii MP-15, in the assay on E. coli MP-4, with K. pneumoniae MP-546 and against P. aeruginosa MP-3 was more than 32 µg/mL throughout.

Turning to `CO[C@]1(C)C[C@@H](C)CN(C)[C@H]([C@H]2CCN(C)C2)COC(=O)C(C)(C)C(=O)[C@H](C)[C@H]1O[C@@H]1O[C@H](C)C[C@H](N(C)C)[C@H]1O` [Compound 166, (3R,6R,8R,9R,10R)-9-(((2S,3R,4S,6R)-4-(Dimethylamino)-3-hydroxy-6-methyltetrahydro-2H-pyran-2-yl)oxy)-8-methoxy-4,6,8,10,12,12-hexamethyl-3-((S)-1-methylpyrrolidin-3-yl)-1-oxa-4-azacyclotridecane-11,13-dione], the MIC in the assay with S. aureus MP-12 is more than 32 µg/mL; with A. baumannii MP-15, more than 32 µg/mL; in the assay on E. coli MP-4 it was less than 4 µg/mL; in the assay on K. pneumoniae MP-546, less than 4 µg/mL; in the assay on P. aeruginosa MP-3, more than 32 µg/mL.

On to `CO[C@]1(C)C[C@@H](C)CN(C)[C@H](C2CCN(C(=O)CN(C)C)CC2)COC(=O)C(C)(C)C(=O)[C@H](C)[C@H]1O[C@@H]1O[C@H](C)C[C@H](N(C)C)[C@H]1O` [Compound 85, (3R,6R,8R,9R,10R)-9-(((2S,3R,4S,6R)-4-(dimethylamino)-3-hydroxy-6-methyltetrahydro-2H-pyran-2-yl)oxy)-3-(1-(dimethylglycyl)piperidin-4-yl)-8-methoxy-4,6,8,10,12,12-hexamethyl-1-oxa-4-azacyclotridecane-11,13-dione], for which the MIC with S. aureus MP-12 is more than 32 µg/mL; in the assay on A. baumannii MP-15 it was more than 32 µg/mL; in the assay with E. coli MP-4 it was less than 4 µg/mL; with K. pneumoniae MP-546, 4 to 32 µg/mL (≈ 5.98 to 47.8 µM); against P. aeruginosa MP-3 it was more than 32 µg/mL.

For the molecule `CO[C@]1(C)C[C@@H](C)CN(C)[C@H](c2ccc(-c3cccc(N)c3)cc2)COC(=O)C(C)(C)C(=O)[C@H](C)[C@H]1O[C@@H]1O[C@H](C)C[C@H](N(C)C)[C@H]1O` [Compound 93, (3R,6R,8R,9R,10R)-3-(3′-Amino-[1,1′-biphenyl]-4-yl)-9-(((2S,3R,4S,6R)-4-(dimethylamino)-3-hydroxy-6-methyltetrahydro-2H-pyran-2-yl)oxy)-8-methoxy-4,6,8,10,12,12-hexamethyl-1-oxa-4-azacyclotridecane-11,13-dione], the minimal inhibitory concentration (MIC) in the assay on S. aureus MP-12 was 4 to 32 µg/mL (≈ 5.99 to 47.9 µM); in the assay with A. baumannii MP-15, more than 32 µg/mL; in the assay with E. coli MP-4, 4 to 32 µg/mL (≈ 5.99 to 47.9 µM); in the assay on K. pneumoniae MP-546 it was more than 32 µg/mL; in the assay with P. aeruginosa MP-3 it was more than 32 µg/mL.

As for `CO[C@]1(C)C[C@@H](C)CN(C)[C@H](C2CC3CCC(C2)N3CC(C)C)COC(=O)C(C)(C)C(=O)[C@H](C)[C@H]1O[C@@H]1O[C@H](C)C[C@H](N(C)C)[C@H]1O` (stereo partly drawn) [Compound 87, (3R,6R,8R,9R,10R)-9-(((2S,3R,4S,6R)-4-(dimethylamino)-3-hydroxy-6-methyltetrahydro-2H-pyran-2-yl)oxy)-3-(8-isobutyl-8-azabicyclo[3.2.1]octan-3-yl)-8-methoxy-4,6,8,10,12,12-hexamethyl-1-oxa-4-azacyclotridecane-11,13-dione], the minimal inhibitory concentration (MIC) was less than 4 µg/mL in the assay on S. aureus MP-12; more than 32 µg/mL in the assay on A. baumannii MP-15; less than 4 µg/mL in the assay with E. coli MP-4; 4 to 32 µg/mL (≈ 6.01 to 48.1 µM) with K. pneumoniae MP-546; more than 32 µg/mL against P. aeruginosa MP-3.

As to `CO[C@]1(C)C[C@@H](C)CN(C)[C@@H](C2CCCCC2)COC(=O)C(C)(C)C(=O)[C@H](C)[C@H]1O[C@@H]1O[C@H](C)C[C@H](N(C)C)[C@H]1O` [Compound 102, (3S,6R,8R,9R,10R)-3-cyclohexyl-9-(((2S,3R,4S,6R)-4-(dimethylamino)-3-hydroxy-6-methyltetrahydro-2H-pyran-2-yl)oxy)-8-methoxy-4,6,8,10,12,12-hexamethyl-1-oxa-4-azacyclotridecane-11,13-dione], the minimum inhibitory concentration (MIC) against S. aureus MP-12, in the assay on A. baumannii MP-15, in the assay on E. coli MP-4, in the assay on K. pneumoniae MP-546 and in the assay on P. aeruginosa MP-3 was more than 32 µg/mL throughout.

In the case of `CO[C@]1(C)C[C@@H](C)CN(C)[C@H](C2CCN(S(C)(=O)=O)CC2)COC(=O)C(C)(C)C(=O)[C@H](C)[C@H]1O[C@@H]1O[C@H](C)C[C@H](N(C)C)[C@H]1O` [Compound 142, (3R,6R,8R,9R,10R)-9-(((2S,3R,4S,6R)-4-(dimethylamino)-3-hydroxy-6-methyltetrahydro-2H-pyran-2-yl)oxy)-8-methoxy-4,6,8,10,12,12-hexamethyl-3-(1-(methylsulfonyl)piperidin-4-yl)-1-oxa-4-azacyclotridecane-11,13-dione], the minimal inhibitory concentration (MIC) in the assay with S. aureus MP-12 was 4 to 32 µg/mL (≈ 6.04 to 48.3 µM); in the assay on A. baumannii MP-15, more than 32 µg/mL; in the assay on E. coli MP-4, 4 to 32 µg/mL (≈ 6.04 to 48.3 µM); in the assay with K. pneumoniae MP-546, 4 to 32 µg/mL (≈ 6.04 to 48.3 µM); with P. aeruginosa MP-3, more than 32 µg/mL.

Consider `CO[C@]1(C)C[C@@H](C)CN(C)[C@@H](C2CCN(C(C)C)CC2)COC(=O)C(C)(C)C(=O)[C@H](C)[C@H]1O[C@@H]1O[C@H](C)C[C@H](N(C)C)[C@H]1O` [Compound 116, (3S,6R,8R,9R,10R)-9-(((2S,3R,4S,6R)-4-(dimethylamino)-3-hydroxy-6-methyltetrahydro-2H-pyran-2-yl)oxy)-3-(1-isopropylpiperidin-4-yl)-8-methoxy-4,6,8,10,12,12-hexamethyl-1-oxa-4-azacyclotridecane-11,13-dione], for which the MIC is 4 to 32 µg/mL (≈ 6.39 to 51.1 µM) in the assay with S. aureus MP-12; more than 32 µg/mL with A. baumannii MP-15; less than 4 µg/mL in the assay on E. coli MP-4; less than 4 µg/mL against K. pneumoniae MP-546; more than 32 µg/mL with P. aeruginosa MP-3.

As for `CO[C@]1(C)C[C@@H](C)CN(C)[C@H](C2CN(C(=O)CN3CCC3)C2)COC(=O)C(C)(C)C(=O)[C@H](C)[C@H]1O[C@@H]1O[C@H](C)C[C@H](N(C)C)[C@H]1O` [Compound 14], the MIC in the assay on S. aureus MP-12 was more than 32 µg/mL; in the assay with A. baumannii MP-15, more than 32 µg/mL; in the assay on E. coli MP-4 it was less than 4 µg/mL; against K. pneumoniae MP-546, more than 32 µg/mL; against P. aeruginosa MP-3 it was more than 32 µg/mL.
